Measured values from patent US20240116985A1, “STAPLED PEPTIDES AND METHODS THEREOF” (priority 2020, published 2024).
≈ marks a conversion by molar mass, not a printed value. Like-named read-outs stand apart in the source and are kept apart here.

Legend:
CHI Log D procedure = assay type: physicochemical; conditions: pH 7.4, CHI Log D
[1] = molecular target: T1, beta-catenin/TCF4 engagement (Homo sapiens, UniProt P35222); experiment: Nano-BRET target engagement assay (B-cat-Halo & TCF4-Luc in HEK293 cells); assay type: cell-based
T1 construct: expressed in transfected cells; host or cells: HEK293
T1 sequence (P35222 1-781): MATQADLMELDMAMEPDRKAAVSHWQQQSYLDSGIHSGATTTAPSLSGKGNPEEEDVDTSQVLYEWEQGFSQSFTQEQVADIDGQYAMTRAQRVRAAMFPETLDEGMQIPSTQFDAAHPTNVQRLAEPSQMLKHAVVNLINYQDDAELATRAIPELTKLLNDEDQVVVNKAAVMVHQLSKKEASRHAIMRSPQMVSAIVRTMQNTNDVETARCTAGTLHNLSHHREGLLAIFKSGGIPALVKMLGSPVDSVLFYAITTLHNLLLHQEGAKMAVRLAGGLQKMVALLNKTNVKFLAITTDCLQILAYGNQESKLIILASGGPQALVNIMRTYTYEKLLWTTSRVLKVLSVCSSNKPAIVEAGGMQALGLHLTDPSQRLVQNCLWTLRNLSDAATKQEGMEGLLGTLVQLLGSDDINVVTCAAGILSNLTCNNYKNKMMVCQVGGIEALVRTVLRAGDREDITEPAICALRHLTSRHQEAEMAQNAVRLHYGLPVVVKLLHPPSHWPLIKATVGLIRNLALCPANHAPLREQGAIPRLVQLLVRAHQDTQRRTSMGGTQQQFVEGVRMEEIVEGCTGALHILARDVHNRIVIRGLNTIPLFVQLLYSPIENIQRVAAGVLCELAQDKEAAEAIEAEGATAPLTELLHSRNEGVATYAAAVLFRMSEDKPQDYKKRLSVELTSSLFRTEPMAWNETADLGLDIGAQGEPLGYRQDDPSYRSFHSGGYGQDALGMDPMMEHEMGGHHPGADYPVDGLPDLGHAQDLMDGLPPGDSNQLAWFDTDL

[2] = molecular target: T2, full-length beta-Catenin (Uniprot ID P35222) (Homo sapiens, UniProt P35222); experiment: Fluorescence polarization IC50 (beta-catenin / 5FAM-TCF4 10-53 competition); assay type: binding; conditions: read-out: beta-Catenin FP IC50
T2 construct: 10 nM full-length beta-Catenin (Uniprot ID P35222)
T2 sequence (P35222 1-781): T1 sequence (P35222 1-781)

Solubility in PBS = assay type: physicochemical
Method in brief: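 Solubility is derived from HPLC peak areas: the ratio of the PBS supernatant peak to a 50 μM DMSO peptide peak, times 50 uM.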

[3] = absolute IC50, read-out: NanoBRET Abs IC50

SMILES | chromatographic logD (CHI Log D procedure) | IC50 ([1]; read-out: NanoBRET IC50) [nM] | IC50 ([2]; fluorescence polarization) [nM] | Solubility (Solubility in PBS; Solubility (uM)) [µM] | IC50 ([1]; read-out: NanoBRET Abs IC50) [nM] | IC50 [2] [nM] | IC50 [1, 3] [nM] | Solubility (Solubility in PBS) [µM] | inhibition at 10 µM ([1]; HEK293, @ 10 uM, read-out: NanoBRET % inh @ 10 uM) [%]
CC(=O)N1CCC[C@]12CC=CCCCC1(CCCC=CCCCCCC[C@@](C)(C(=O)N[C@@H](Cc3ccsc3)C(=O)N[C@@H](Cc3csc4ccccc34)C(=O)N[C@@H](CCC(N)=O)C(N)=O)NC(=O)[C@H](CC(N)=O)NC(=O)[C@H](Cc3ccccc3)NC(=O)[C@H](C)NC(=O)[C@H](C)NC(=O)[C@H](CN(CC(=O)O)CC(F)(F)F)NC(=O)[C@H](CC(=O)O)NC1=O)NC(=O)[C@H](CC(C)(C)C)NC(=O)[C@H](CC(=O)O)NC2=O (stereo partly drawn) [I-704, Ac-PL3-Asp-Npg-B5-Asp-TfeGA-Ala-Ala-Phe-Asn-S8-3Thi-BztA-Gln-NH2] | 2.75 | 7900 | 49 | 42 (≈ 83.4 µg/mL) |  |  |  |  | 
CC(=O)N1CCC[C@]12CC=CCCCC1(CCCC=CCCCOC(=O)N3CC[C@@](C(=O)N[C@@H](Cc4cccs4)C(=O)N[C@@H](Cc4csc5ccccc45)C(=O)N[C@@H](CCC(N)=O)C(N)=O)(C3)NC(=O)[C@H](CC(N)=O)NC(=O)[C@H](Cc3ccccc3)NC(=O)[C@H](C)NC(=O)[C@H](C)NC(=O)[C@H](CC(=O)O)NC(=O)[C@H](CC(=O)O)NC1=O)NC(=O)[C@H](CC(C)(C)C)NC(=O)[C@H](CC(=O)O)NC2=O (stereo partly drawn) [I-778, Ac-PL3-Asp-Npg-B5-Asp-Asp-Ala-Ala-Phe-Asn-PyrS2-2Thi-BztA-Gln-NH2] | 2.04 |  |  | 43 (≈ 82.5 µg/mL) | 11200 | 8 |  |  | 
CC(=O)N1CCC[C@]12CC=CCCCC1(CCCC=CCCCOC(=O)N3CC[C@@](C(=O)N[C@@H](Cc4ccsc4)C(=O)N[C@@H](Cc4csc5ccccc45)C(=O)N[C@H](Cc4c[nH]cn4)C(N)=O)(C3)NC(=O)[C@H](CC(N)=O)NC(=O)[C@H](Cc3ccccc3)NC(=O)[C@H](C)NC(=O)[C@H](C)NC(=O)[C@H](CC(=O)O)NC(=O)[C@H](CC(=O)O)NC1=O)NC(=O)[C@H](CC(C)(C)C)NC(=O)[C@H](CC(=O)O)NC2=O (stereo partly drawn) [I-813, Ac-PL3-Asp-Npg-B5-Asp-Asp-Ala-Ala-Phe-Asn-PyrS2-3Thi-BztA-dHis-NH2] | 2.17 |  |  | 28 (≈ 54 µg/mL) | 20900 | 7 |  |  | 
COc1ccccc1C[C@H](NC(=O)[C@]12CCN(C1)C(=O)OCCCC=CCCCC1(CCCC=CC[C@]3(CCCN3C(C)=O)C(=O)N[C@@H](CC(=O)O)C(=O)N[C@@H](CC(C)(C)C)C(=O)N1)C(=O)N[C@@H](CC(=O)O)C(=O)N[C@@H](CC(=O)O)C(=O)N[C@@H](C)C(=O)N[C@@H](C)C(=O)N[C@@H](Cc1ccccc1)C(=O)N[C@@H](CC(N)=O)C(=O)N2)C(=O)N[C@@H](Cc1csc2ccccc12)C(=O)N[C@@H](Cc1c[nH]cn1)C(N)=O (stereo partly drawn) [I-781, Ac-PL3-Asp-Npg-B5-Asp-Asp-Ala-Ala-Phe-Asn-PyrS2-2OMeF-BztA-His-NH2] | 2.16 | 11600 |  | 41 (≈ 80 µg/mL) |  | 5 |  |  | 24
CC(=O)N1CCC[C@]12CC=CCCCC1(CCCC=CCCCOC(=O)N3CC[C@@](C(=O)N[C@@H](Cc4ccsc4)C(=O)N[C@@H](Cc4csc5ccccc45)C(=O)N[C@@H](Cc4c[nH]cn4)C(N)=O)(C3)NC(=O)[C@H](CC(N)=O)NC(=O)[C@H](Cc3ccccc3)NC(=O)[C@H](C)NC(=O)[C@H](C)NC(=O)[C@H](CCC(N)=O)NC(=O)[C@H](CC(=O)O)NC1=O)NC(=O)[C@H](CC(C)(C)C)NC(=O)[C@H](CC(=O)O)NC2=O (stereo partly drawn) [I-839, Ac-PL3-Asp-Npg-B5-Asp-Gln-Ala-Ala-Phe-Asn-PyrS2-3Thi-BztA-His-NH2] | 2.27 |  |  | 13 (≈ 25.2 µg/mL) |  | 7 | 41900 |  | 
CC(=O)N1CCC[C@]12CC=CCCCC1(CCCC=CCCCOC(=O)N3CC[C@@](C(=O)N[C@@H](Cc4ccsc4)C(=O)N[C@@H](Cc4csc5ccccc45)C(=O)N[C@@H](CCC(N)=O)C(N)=O)(C3)NC(=O)[C@H](CC(N)=O)NC(=O)[C@H](Cc3ccccc3)NC(=O)[C@H](CCCCNC(=O)c3ccc(CN4CCOCC4)cc3)NC(=O)[C@H](C)NC(=O)[C@H](CC(=O)O)NC(=O)[C@H](CC(=O)O)NC1=O)NC(=O)[C@H](CC(C)(C)C)NC(=O)[C@H](CC(=O)O)NC2=O (stereo partly drawn) [I-890, Ac-PL3-Asp-Npg-B5-Asp-Asp-Ala-[MeMorphBz]Lys-Phe-Asn-PyrS2-3Thi-BztA-Gln-NH2] | 1.67 |  |  | 40 (≈ 87.1 µg/mL) | > 20000 | 16 |  |  | 

Next, values leading:

chromatographic logD (CHI Log D procedure) | IC50 ([1]; read-out: NanoBRET IC50) [nM] | IC50 ([2]; fluorescence polarization) [nM] | Solubility (Solubility in PBS; Solubility (uM)) [µM] | IC50 ([1]; read-out: NanoBRET Abs IC50) [nM] | IC50 [2] [nM] | IC50 [1, 3] [nM] | Solubility (Solubility in PBS) [µM] | inhibition at 10 µM ([1]; HEK293, @ 10 uM, read-out: NanoBRET % inh @ 10 uM) [%] | SMILES
2.65 |  |  |  |  | 41 | 8800 | 10 (≈ 20.5 µg/mL) |  | CC(=O)N1CCC[C@]12CC=CCCCC1(CCCC=CCCCOC(=O)N3CC[C@@](C(=O)N[C@@H](Cc4ccccc4Cl)C(=O)N[C@@H](Cc4csc5ccccc45)C(=O)N[C@@H](CO)C(N)=O)(C3)NC(=O)[C@H](Cc3ccccc3)NC(=O)[C@H](Cc3ccccc3)NC(=O)[C@H](C)NC(=O)[C@H](C)NC(=O)[C@H](CN(CC(=O)O)CC(F)(F)F)NC(=O)[C@H](CC(=O)O)NC1=O)NC(=O)[C@H](CC(C)(C)C)NC(=O)[C@H](CC(=O)O)NC2=O (stereo partly drawn) [I-990, Ac-PL3-Asp-Npg-B5-Asp-TfeGA-Ala-Ala-Phe-Phe-PyrS2-2C1F-BztA-Ser-NH2]
3.08 |  |  |  | 17700 | 117 |  | 50 (≈ 113 µg/mL) |  | CC(=O)N1CCC[C@]12CC=CCCCC1(CCCC=CCCCOC(=O)N3CC[C@@](C(=O)N[C@@H](Cc4ccsc4)C(=O)N[C@@H](Cc4csc5ccccc45)C(=O)N[C@@H](CCC(N)=O)C(=O)N[C@@H](CCCCNC(=O)C45CC6(C)CC(C)(CC(C)(C6)C4)C5)C(N)=O)(C3)NC(=O)[C@H](CC(N)=O)NC(=O)[C@H](Cc3ccccc3)NC(=O)[C@H](C)NC(=O)[C@H](C)NC(=O)[C@H](CC(=O)O)NC(=O)[C@H](CC(=O)O)NC1=O)NC(=O)[C@H](CC(C)(C)C)NC(=O)[C@H](CC(=O)O)NC2=O (stereo partly drawn) [I-920, Ac-PL3-Asp-Npg-B5-Asp-Asp-Ala-Ala-Phe-Asn-PyrS2-3Thi-BztA-Gln-[Me3AdamantC]Lys-NH2]
1.84 |  |  | 40 (≈ 88.3 µg/mL) | 29800 | 10 |  |  |  | CC(=O)N1CCC[C@]12CC=CCCCC1(CCCC=CCCCOC(=O)N3CC[C@@](C(=O)N[C@@H](Cc4ccsc4)C(=O)N[C@@H](Cc4csc5ccccc45)C(=O)N[C@@H](CCC(N)=O)C(=O)N[C@@H](CCCCNC(=O)c4ccc(CN(C)C)cc4)C(N)=O)(C3)NC(=O)[C@H](CC(N)=O)NC(=O)[C@H](Cc3ccccc3)NC(=O)[C@H](C)NC(=O)[C@H](C)NC(=O)[C@H](CC(=O)O)NC(=O)[C@H](CC(=O)O)NC1=O)NC(=O)[C@H](CC(C)(C)C)NC(=O)[C@H](CC(=O)O)NC2=O (stereo partly drawn) [I-910, Ac-PL3-Asp-Npg-B5-Asp-Asp-Ala-Ala-Phe-Asn-PyrS2-3Thi-BztA-Gln-[Me2NCBz]Lys-NH2]
2.34 |  |  | 37 (≈ 73.1 µg/mL) | 29500 | 24 |  |  |  | COc1cccc(C[C@@H]2NC(=O)[C@H](C)NC(=O)[C@H](C)NC(=O)[C@H](CC(=O)O)NC(=O)[C@H](CC(=O)O)NC(=O)C3(CCCC=CCCCOC(=O)N4CC[C@@](C(=O)N[C@@H](Cc5ccccc5Cl)C(=O)N[C@@H](Cc5csc6ccccc56)C(=O)N[C@@H](CCC(N)=O)C(N)=O)(C4)NC(=O)[C@H](CO)NC2=O)CCCC=CC[C@]2(CCCN2C(C)=O)C(=O)N[C@@H](CC(=O)O)C(=O)N[C@@H](CC2CCCCC2)C(=O)N3)c1 (stereo partly drawn) [I-1118, Ac-PL3-Asp-Cha-B5-Asp-Asp-Ala-Ala-3OMeF-Ser-PyrS2-2C1F-BztA-Gln-NH2]
2.33 |  |  | 48 (≈ 88.8 µg/mL) |  | 36 | > 20000 |  |  | CC(=O)N1CCC[C@]12CC=CCCCC1(CCCC=CCCCOC(=O)N3CC[C@@](C(=O)N[C@@H](Cc4ccccc4)C(=O)N[C@@H](Cc4csc5ccccc45)C(=O)N[C@@H](CO)C(N)=O)(C3)NC(=O)[C@H](CO)NC(=O)[C@H](CC3CCCCC3)NC(=O)[C@H](C)NC(=O)[C@H](C)NC(=O)[C@H](CC(=O)O)NC(=O)[C@H](CC(=O)O)NC1=O)NC(=O)[C@H](CC(C)(C)C)NC(=O)[C@H](CC(=O)O)NC2=O (stereo partly drawn) [I-1105, Ac-PL3-Asp-Npg-B5-Asp-Asp-Ala-Ala-Cha-Ser-PyrS2-Phe-BztA-Ser-NH2]
2.64 |  |  |  | 11800 | 18 |  | 10 (≈ 20.1 µg/mL) |  | CC(=O)N1CCC[C@]12CC=CCCCC1(CCCC=CCCCOC(=O)N3CC[C@@](C(=O)N[C@@H](Cc4ccccc4Cl)C(=O)N[C@@H](Cc4csc5ccccc45)C(=O)N[C@@H](CCC(N)=O)C(N)=O)(C3)NC(=O)[C@H](CC3CCCCC3)NC(=O)[C@H](Cc3ccccc3)NC(=O)[C@H](C)NC(=O)[C@H](C)NC(=O)[C@H](CC(=O)O)NC(=O)[C@H](CC(=O)O)NC1=O)NC(=O)[C@H](CC1CCCCC1)NC(=O)[C@H](CC(=O)O)NC2=O (stereo partly drawn) [I-1107, Ac-PL3-Asp-Cha-B5-Asp-Asp-Ala-Ala-Phe-Cha-PyrS2-2C1F-BztA-Gln-NH2]
